Test results: patent US9695155B2, “Herbicidal substituted pyrimidinyloxy benzene compounds” (E. I. DU PONT DE NEMOURS AND COMPANY, priority 2013, dated 2017)

Legend:
[1] = test system: chickweed; experiment: Test D preemergence; format: in vivo, Stellaria media
Outline: (§1)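 Seeds sown in silt loam soil got preemergence sprays; plants in peat/vermiculite potting medium were sprayed postemergence at 2–18 cm (1- to 4-leaf stage). Chemicals were formulated in a non-phytotoxic solvent mixture with surfactant. After 7 to 21 days in a controlled environment, injury was rated visually versus controls, 0 (no effect) to 100 (complete control).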

[2] = test system: field poppy; experiment: Test D preemergence; format: in vivo, Papaver rhoeas
Source text: (§2) Seeds of plant species selected from bluegrass (annual bluegrass, Poa annua), blackgrass (Alopecurus myosuroides), canarygrass (littleseed canarygrass, Phalaris minor), chickweed (common chickweed, Stellaria media), galium (catchweed bedstraw, Galium aparine), bromegrass, downy (downy bromegrass, Bromus tectorum), field poppy (Papaver rhoeas), field violet (Viola arvensis), green foxtail (Setaria viridis), deadnettle (henbit deadnettle, Lamium amplexicaule), Italian ryegrass (Lolium multiflorum), kochia (Kochia scoparia), lambsquarters (Chenopodium album), oilseed rape (Brassica napus), pigweed (Amaranthus retroflexus), chamomile (scentless chamomile, Matricaria inodora), Russian thistle (Salsola kali), speedwell (bird's-eye speedwell, Veronica persica), spring barley (Hordeum vulgare), spring wheat (Triticum aestivum), wild buckwheat (Polygonum convolvulus), wild mustard (Sinapis arvensis), wild oat (Avena fatua), wild radish (Raphanus raphanistrum), windgrass (Apera spica-venti), winter barley (Hordeum vulgare), and winter wheat (Triticum aestivum) were planted into a silt loam soil and treated preemergence with test chemicals formulated in a non-phytotoxic solvent mixture which included a surfactant.
(§3) At the same time, these species were planted in pots containing Redi-Earth® planting medium (Scotts Company, 14111 Scottslawn Road, Marysville, Ohio 43041) comprising spaghnum peat moss, vermiculite, wetting agent and starter nutrients and treated with postemergence applications of the test chemicals formulated in the same manner. Plants ranged in height from 2 to 18 cm (1- to 4-leaf stage). Treated plants and controls were maintained in a controlled growth environment for 7 to 21 days after which time all species were compared to controls and visually evaluated. Plant response ratings, summarized in Table D, are based on a scale of 0 to 100 where 0 is no effect and 100 is complete control. A dash (-) response means no test result.

[3] = test system: pigweed; experiment: Test D preemergence; format: in vivo, Amaranthus retroflexus
Outline: as §1

[4] = test system: spring barley; experiment: Test D preemergence; format: in vivo, Hordeum vulgare
Source text: as §2, §3

[5] = test system: winter barley; experiment: Test D preemergence; format: in vivo, Hordeum vulgare
Source text: as §2, §3

[6] = test system: wild buckwheat; experiment: Test D preemergence; format: in vivo, Polygonum convolvulus
Source text: as §2, §3

[7] = test system: chickweed; experiment: Test D postemergence; format: in vivo, Stellaria media
Source text: as §2, §3

[8] = test system: spring barley; experiment: Test D postemergence; format: in vivo, Hordeum vulgare
Source text: as §2, §3

[9] = test system: winter barley; experiment: Test D postemergence; format: in vivo, Hordeum vulgare
Source text: as §2, §3

[10] = test system: wild oat; experiment: Test D postemergence; format: in vivo, Avena fatua
Source text: as §2, §3

[11] = 16 g ai/ha, scale 0 (no effect) to 100 (complete control)
[12] = 31 g ai/ha, scale 0 to 100 (0 no effect, 100 complete control)
[13] = 62 g ai/ha, scale 0 to 100 (0 no effect, 100 complete control)
[14] = 125 g ai/ha, scale 0 to 100 (0 no effect, 100 complete control)
[15] = 250 g ai/ha, scale 0 to 100 (0 no effect, 100 complete control)
[16] = Postemergence, 62 g ai/ha, scale 0 to 100 (0 no effect, 100 complete control)
[17] = Postemergence, 31 g ai/ha, scale 0 to 100 (0 no effect, 100 complete control)
[18] = Postemergence, 125 g ai/ha, scale 0 to 100 (0 no effect, 100 complete control)
[19] = Postemergence, 250 g ai/ha, scale 0 to 100 (0 no effect, 100 complete control)
[20] = postemergence, 16 g ai/ha, scale 0 to 100, 0 no effect, 100 complete control

`Clc1cnc(Oc2ccccc2-n2cc(Cl)cn2)nc1` [Compound 3] was tested, and the “Plant response rating, Chickweed” value [1, 11] was 0, the “Plant response rating, Chickweed” value ([1]; 62 g ai/ha, scale 0-100) was 0 and the “Plant response rating, Chickweed” value ([1]; 250 g ai/ha, scale 0-100) was 90. For the same compound, the “Plant response rating, Field Poppy” value [2, 11] was 40, the “Plant response rating, Field Poppy” value ([2]; 62 g ai/ha, scale 0-100) was 40 and the “Plant response rating, Field Poppy” value ([2]; 125 g ai/ha, scale 0-100) was 70. The “Plant response rating, Field Poppy” value ([2]; 250 g ai/ha, scale 0-100) was 80, the “Plant response rating, Pigweed” value [3, 11] was 0 and the “Plant response rating, Pigweed” value ([3]; 31 g ai/ha, scale 0 (no effect) to 100 (complete control)) was 0. The “Plant response rating, Pigweed” value ([3]; 62 g ai/ha, scale 0-100) was 40, the “Plant response rating, Pigweed” value ([3]; 125 g ai/ha, scale 0-100) was 80 and the “Plant response rating, Pigweed” value ([3]; 250 g ai/ha, scale 0-100) was 100. The “Plant response rating, Barley, Spring” value [4, 11] was 0, the “Plant response rating, Barley, Spring” value ([4]; 31 g ai/ha, scale 0-100) was 0 and the “Plant response rating, Barley, Spring” value ([4]; 62 g ai/ha, scale 0-100) was 0. For the same compound, the “Plant response rating, Barley, Spring” value ([4]; 125 g ai/ha, scale 0-100) was 0, the “Plant response rating, Barley, Spring” value ([4]; 250 g ai/ha, scale 0-100) was 0 and the “Plant response rating, Barley, Winter” value [5, 11] was 0. The “Plant response rating, Barley, Winter” value ([5]; 31 g ai/ha, scale 0-100) was 0, the “Plant response rating, Barley, Winter” value ([5]; 62 g ai/ha, scale 0-100) was 0 and the “Plant response rating, Barley, Winter” value ([5]; 125 g ai/ha, scale 0-100) was 10. The “Plant response rating, Barley, Winter” value ([5]; 250 g ai/ha, scale 0-100) was 20, the “Plant response rating, Buckwheat, Wild” value [6, 11] was 0 and the “Plant response rating, Buckwheat, Wild” value ([6]; 31 g ai/ha, scale 0-100) was 0. For the same compound, the “Plant response rating, Buckwheat, Wild” value ([6]; 62 g ai/ha, scale 0-100) was 0, the “Plant response rating, Buckwheat, Wild” value ([6]; 125 g ai/ha, scale 0-100) was 60 and the “Plant response rating, Buckwheat, Wild” value ([6]; 250 g ai/ha, scale 0-100) was 100. For the same compound, the “Plant response rating, Chickweed” value ([7]; 16 g ai/ha, scale 0-100) was 40, the “Plant response rating, Chickweed” value [7, 12] was 0 and the “Plant response rating, Chickweed” value [7, 13] was 25. For the same compound, the “Plant response rating, Chickweed” value [7, 14] was 30, the “Plant response rating, Chickweed” value [7, 15] was 40 and the “Plant response rating, Barley, Spring” value [8, 16] was 0. The “Plant response rating, Barley, Spring” value [8, 17] was 0, the “Plant response rating, Barley, Spring” value [8, 18] was 0 and the “Plant response rating, Barley, Spring” value [8, 19] was 10. For the same compound, the “Plant response rating, Barley, Spring” value [8, 20] was 50, the “Plant response rating, Barley, Winter” value [9, 16] was 0 and the “Plant response rating, Barley, Winter” value [9, 17] was 0. The “Plant response rating, Barley, Winter” value [9, 18] was 0, the “Plant response rating, Barley, Winter” value [9, 19] was 0 and the “Plant response rating, Barley, Winter” value [9, 20] was 50. The “Plant response rating, Oat, Wild” value ([10]; 16 g ai/ha, scale 0-100) was 70, the “Plant response rating, Oat, Wild” value [10, 12] was 0 and the “Plant response rating, Oat, Wild” value [10, 13] was 0. For the same compound, the “Plant response rating, Oat, Wild” value [10, 14] was 0 and the “Plant response rating, Oat, Wild” value [10, 15] was 0.
